Data from publication PMC7914463, “Caffeic Acid Modulates Processes Associated with Intestinal Inflammation” (Nutrients, 2021).
Like-named read-outs stand apart in the source and are kept apart here.

Molecular target: T1, angiotensin-converting enzyme (ACE) (Sus scrofa, UniProt F1RRW5)
T1 construct: ACE isolated from porcine kidneys (EC 3.4.15.1)
T1 sequence (F1RRW5 34-1309): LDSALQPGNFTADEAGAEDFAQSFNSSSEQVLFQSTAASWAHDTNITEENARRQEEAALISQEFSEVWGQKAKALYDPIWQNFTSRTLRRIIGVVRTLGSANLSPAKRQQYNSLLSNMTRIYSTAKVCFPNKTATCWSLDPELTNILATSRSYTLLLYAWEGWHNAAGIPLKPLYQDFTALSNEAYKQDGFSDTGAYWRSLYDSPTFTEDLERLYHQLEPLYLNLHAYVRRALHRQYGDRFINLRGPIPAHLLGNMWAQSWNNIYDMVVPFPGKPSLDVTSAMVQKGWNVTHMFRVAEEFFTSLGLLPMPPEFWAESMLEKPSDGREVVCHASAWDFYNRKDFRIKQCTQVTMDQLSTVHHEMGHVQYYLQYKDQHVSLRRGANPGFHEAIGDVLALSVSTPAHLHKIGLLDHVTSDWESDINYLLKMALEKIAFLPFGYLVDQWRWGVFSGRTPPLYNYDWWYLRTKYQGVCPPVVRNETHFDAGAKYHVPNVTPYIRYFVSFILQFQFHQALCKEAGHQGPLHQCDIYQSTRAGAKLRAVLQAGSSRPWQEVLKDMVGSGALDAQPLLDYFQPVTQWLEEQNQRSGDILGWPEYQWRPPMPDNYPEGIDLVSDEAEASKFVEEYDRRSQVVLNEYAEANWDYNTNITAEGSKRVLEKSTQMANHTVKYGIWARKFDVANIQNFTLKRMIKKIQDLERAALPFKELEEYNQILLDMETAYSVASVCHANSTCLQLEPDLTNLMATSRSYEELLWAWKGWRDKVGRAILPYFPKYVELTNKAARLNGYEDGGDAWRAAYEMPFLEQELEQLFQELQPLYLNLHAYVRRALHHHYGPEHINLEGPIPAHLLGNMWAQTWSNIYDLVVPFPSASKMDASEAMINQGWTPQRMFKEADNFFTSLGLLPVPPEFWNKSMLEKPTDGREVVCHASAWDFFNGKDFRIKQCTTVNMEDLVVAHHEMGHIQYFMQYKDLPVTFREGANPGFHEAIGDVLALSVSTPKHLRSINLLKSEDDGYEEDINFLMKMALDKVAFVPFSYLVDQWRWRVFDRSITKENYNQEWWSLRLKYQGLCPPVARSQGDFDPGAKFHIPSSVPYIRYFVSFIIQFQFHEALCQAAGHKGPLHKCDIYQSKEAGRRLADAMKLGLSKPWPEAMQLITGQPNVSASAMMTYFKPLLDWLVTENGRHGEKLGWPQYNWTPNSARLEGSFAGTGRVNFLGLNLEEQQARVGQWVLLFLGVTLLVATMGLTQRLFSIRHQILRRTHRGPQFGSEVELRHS
Assay: fluorescence assay, hydrolysis of Abz-Gly-Phe(NO2)-Pro
Assay type: biochemical

| Structure (SMILES) | IC50 | IC50 (read-out: IC50 (μg/mL) (converted)) [mM] |
| --- | --- | --- |
| N[C@@H](CCC(=O)N[C@@H](CS)C(=O)NCC(=O)O)C(=O)O [GSH] | 12.79 ± 1.70 mg/L |  |
| O=C1O[C@H]([C@@H](O)CO)C(O)=C1O [AA, L-ascorbic acid] | 81.3 mM |  |
| O=C(O)/C=C/c1ccc(O)c(O)c1 [CFA, Caffeic acid] |  | 8.97 |
